What all share (type): biochemical
Assay [1] concerns the target T1, human recombinant PTP1B (Homo sapiens, UniProt P18031).
T1 construct: purchased Biomol International LP (Plymouth Meeting, PA, USA)
T1 sequence (P18031 1-435): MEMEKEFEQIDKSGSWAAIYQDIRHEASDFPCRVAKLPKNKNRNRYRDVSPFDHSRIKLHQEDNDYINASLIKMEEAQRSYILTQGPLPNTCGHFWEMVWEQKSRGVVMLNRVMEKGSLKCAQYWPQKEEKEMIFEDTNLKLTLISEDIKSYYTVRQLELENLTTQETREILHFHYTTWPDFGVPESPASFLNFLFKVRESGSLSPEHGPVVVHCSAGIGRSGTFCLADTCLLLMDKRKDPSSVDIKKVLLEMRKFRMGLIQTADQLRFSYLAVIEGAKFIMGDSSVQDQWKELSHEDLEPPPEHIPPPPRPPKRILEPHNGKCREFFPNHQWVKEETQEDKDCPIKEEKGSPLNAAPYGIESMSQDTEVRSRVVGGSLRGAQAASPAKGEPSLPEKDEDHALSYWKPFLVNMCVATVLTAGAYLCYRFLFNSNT
Briefly: Enzyme kinetics analysis of PTP1B (Lineweaver–Burk and Dixon plots). The following applies: for PTP1B Inhibition Type: determined by the Lineweaver–Burk plot. As for the experimental part:
The inhibition type and inhibition constant (Ki) of the two compounds were determined using Lineweaver–Burk and Dixon plots. Each line of the inhibitors penetrate the same point at the x-intercept, indicating noncompetitive-type inhibition, and the x-axis represent-Kiwhen 1/V = 0. […] The Dixon plot is an established method for determining the enzyme inhibition type and the Ki value for an enzyme-inhibitor complex, where the value of the x-axis indicates Ki.
In order to determine the inhibition mechanism, two complementary kinetics methods were used: Lineweaver–Burk and Dixon plots. The level of enzymatic inhibition at various concentrations of test sample was evaluated by monitoring the effect of different substrate concentrations in Dixon plots (single reciprocal plots). Dixon plots for PTP1B inhibition were obtained in the presence of different concentrations of pNPP. Using Lineweaver–Burk plots (double reciprocal plots), the inhibition modes of the compounds were determined at various concentrations of pNPP with different concentrations of compounds. The enzymatic procedures were the same as for the PTP1B assay methods. The types of inhibition were investigated by interpreting the Dixon plots, in which the value of the x-axis indicates Ki.

Assay [2] has as its target T1, human recombinant PTP1B. Briefly: PTP1B activity assay (pNPP substrate). Particulars: mean ± SEM of triplicate experiments. As for the experimental part: The abilities of the aerial parts of E. koreanum and their constituents to inhibit human recombinant PTP1B activity were evaluated using pNPP as a substrate. […] After incubation at 37 °C for 20 min in the dark, the reaction was terminated by addition of 10 M NaOH. The amount of p-nitrophenylate produced by enzymatic dephosphorylation of pNPP was determined by measuring the absorbance at 405 nm using a microplate spectrophotometer (Molecular Devices). Non-enzymatic dephosphorylation of pNPP was corrected by measuring the increase in absorbance at 405 nm obtained in the absence of PTP1B. […] The percent inhibition was calculated as {(AC − AS)/AC} × 100, where AC is the absorbance of the control, and AS is the absorbance of the sample. The IC50 is expressed as the mean ± SEM of triplicate experiments.

The next assay concerns the target yeast α-glucosidase. Put plainly: α-Glucosidase activity assay (pNPG substrate). Particulars: for IC50: mean ± SEM of triplicate experiments, final concentration 20 to 300 μM. As for the experimental part:
α-Glucosidase enzymatic activity was assayed spectrophotometrically as described previously. Briefly, 60 μL of reaction mixture containing 20 μL of 100 mM phosphate buffer (pH 6.8), 20 μL of 2.5 mM pNPG, and 20 μL of sample (final concentration ranging from 20 to 300 μM, dissolved in 10% DMSO) was added to each well. After incubation at 37 °C for 5 min in the dark, 20 μL of yeast α-glucosidase (0.2 U/mL) in 10 mM phosphate buffer (pH 6.8) was added. The plate was then incubated at 37 °C for 15 min in the dark, after which the reaction was stopped by the addition of 80 μL of 0.2 M sodium carbonate solution. The absorbance was immediately recorded at 405 nm using a microplate spectrophotometer (Molecular Devices). The control consisted of the same reaction mixture but with the sample solution replaced by an equivalent volume of phosphate buffer. […] The inhibition percentage (%) was obtained using the same equation as in the PTP1B enzymatic assay.

Take `COc1ccc(-c2oc3c(CC=C(C)C)c(O)cc(O)c3c(=O)c2O)cc1` [Icaritin, icaritin]: the Ki at human recombinant PTP1B [1] (determined by the Dixon plot) was found to be 11.4 µM. Further, the “PTP1B Inhibition Type” value on human recombinant PTP1B [1] was “Non-competitive”. The figures for the IC50 on human recombinant PTP1B [2] and against yeast α-glucosidase were 11.6 ± 1.39 µM and 74.42 ± 0.01 µM, respectively.

Regarding icariside II, on human recombinant PTP1B [1], the “PTP1B Inhibition Type” value is “Non-competitive”. The compound further registered an IC50 at yeast α-glucosidase of 106.6 ± 0.44 µM.

In the case of `COc1ccc(-c2oc3c(CC=C(C)C)c(O[C@@H]4O[C@H](CO)[C@@H](O)[C@H](O)[C@H]4O)cc(O)c3c(=O)c2O[C@@H]2O[C@@H](C)[C@H](O)[C@@H](O)[C@H]2O)cc1` [Icariin, icariin], on human recombinant PTP1B [2], the IC50 was more than 300 µM. Further, the “α-glucosidase inhibition (in words)” value with yeast α-glucosidase (at any of the tested concentrations) is “did not inhibit α-glucosidase activity at any of the tested concentrations”.

Consider `COc1ccc(-c2oc3c(CC=C(C)C)c(O[C@@H]4O[C@H](CO)[C@@H](O)[C@H](O)[C@H]4O)cc(O)c3c(=O)c2O[C@@H]2O[C@@H](C)[C@H](O)[C@@H](O)[C@H]2O[C@@H]2O[C@@H](C)[C@H](O)[C@@H](O)[C@H]2O)cc1` [Epimedin C, epimedin C], for which the IC50 on human recombinant PTP1B [2] is more than 300 µM; on yeast α-glucosidase, 403.9 ± 1.53 µM.

`COc1ccc(-c2oc3c(CC=C(C)C)c(O[C@@H]4O[C@H](CO)[C@@H](O)[C@H](O)[C@H]4O)cc(O)c3c(=O)c2O[C@@H]2O[C@@H](C)[C@H](O)[C@@H](O)[C@H]2O[C@@H]2OC[C@@H](O)[C@H](O)[C@H]2O)cc1` [Epimedin B, epimedin B]: the 50% inhibitory concentration (IC50) on human recombinant PTP1B [2] is more than 300 µM; on yeast α-glucosidase, 452 ± 5.36 µM.

Regarding `COc1ccc(-c2oc3c(CC=C(C)C)c(OC4OC(CO)C(O)C(O)C4O)cc(O)c3c(=O)c2OC2OC(C)C(O)C(O)C2OC2OC(CO)C(O)C(O)C2O)cc1` (centres unmarked) [Epimedin A, epimedin A], the half-maximal inhibitory concentration (IC50) on human recombinant PTP1B [2] was more than 300 µM; on yeast α-glucosidase, 444.1 ± 3.8 µM.

One may read the Ki as a measure of affinity in units of concentration, obtained from inhibition or displacement. A word on the IC50: it is the point on the concentration scale where inhibition reaches its midpoint.
